According to patent US11116752B2, “Pharmaceutical composition comprising bicyclo-substituted pyrazolon azo derivative or salt thereof and preparation method thereof” (Jiangsu Hengrui Medicine Co., Ltd., priority 2016, dated 2021):

Assay: Stability test of Compound B and its mixtures with fillers (1:10)
Format: physicochemical
Procedure: The Compound B was mixed respectively with cellulose-lactose (cellactose 80), a simple mixture of cellulose and lactose (75%:25%), spray-dried lactose (Flowlac 100), microcrystalline cellulose PH302, or microcrystalline cellulose PH102 in a ratio of 1:10. The above mixtures and Compound B were placed respectively under conditions of 40° C./RH75%/open, 40° C./RH75%/closed, or 60° C./closed for 2 weeks and 4 weeks.

- Appearance (40° C./RH75%/closed, 2 Weeks): Dark red powder
- Related substances (%) (40° C./RH75%/closed, 2 Weeks): 1.08%
- Appearance (40° C./RH75%/closed, 4 Weeks): Dark red powder
- Related substances (%) (40° C./RH75%/closed, 4 Weeks): 1.18%
- Appearance (40° C./RH75%/open, 2 Weeks): Dark red mass
- Related substances (%) (40° C./RH75%/open, 2 Weeks): 1.32%
- Appearance (40° C./RH75%/open, 4 Weeks): Dark red mass
- Related substances (%) (40° C./RH75%/open, 4 Weeks): 1.93%
- Appearance (60° C./closed, 2 Weeks): Dark red mass
- Related substances (%) (60° C./closed, 2 Weeks): 3.05%
- Appearance (60° C./closed, 4 Weeks): Dark red mass
- Related substances (%) (60° C./closed, 4 Weeks): 4.84%
- Appearance (Initial point, 0 Day): Dark red powder
- Related substances (%) (Initial point, 0 Day): 0.90%
SMILES: CC1=NN(c2ccc3c(c2)CCCC3)C(=O)/C1=N\Nc1cccc(-c2ccc(C(=O)O)o2)c1O [Compound B, (Z)-5-(2-hydroxy-3-(2-(3-methyl-5-oxo-1-(5,6,7,8-tetrahydronaphthalen-2-yl)-1H-pyrazol-4(5H)-ylidene)hydrazino)phenyl)furan-2-carboxylic acid]
